Test results taken from ChEMBL document CHEMBL1148465, “Carbonic anhydrase inhibitors: the first selective, membrane-impermeant inhibitors targeting the tumor-associated isozyme IX” (Bioorg Med Chem Lett, 2004).

Tests used:
Carbonic anhydrase 9 = Carbonic anhydrase 9 (Homo sapiens, UniProt Q16790)
Description: Inhibitory activity against human carbonic anhydrase IX

Carbonic anhydrase 4 = target: T1, Carbonic anhydrase 4 (Bos taurus, UniProt Q95323)
T1 sequence (Q95323 whole entry): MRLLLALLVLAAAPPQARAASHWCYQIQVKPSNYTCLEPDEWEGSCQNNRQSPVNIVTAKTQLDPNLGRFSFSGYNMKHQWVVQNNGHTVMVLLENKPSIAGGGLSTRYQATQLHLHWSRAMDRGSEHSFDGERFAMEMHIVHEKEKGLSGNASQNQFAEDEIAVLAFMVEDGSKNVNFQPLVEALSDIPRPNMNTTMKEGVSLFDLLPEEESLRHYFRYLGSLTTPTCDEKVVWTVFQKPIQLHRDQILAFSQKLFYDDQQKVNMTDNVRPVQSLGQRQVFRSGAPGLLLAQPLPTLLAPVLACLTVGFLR
Description: Inhibitory activity against carbonic anhydrase IV from bovine lung microsomes

Carbonic anhydrase 1 = Carbonic anhydrase 1 (Homo sapiens, UniProt P00915)
Carbonic anhydrase 1, sequence (P00915 whole entry): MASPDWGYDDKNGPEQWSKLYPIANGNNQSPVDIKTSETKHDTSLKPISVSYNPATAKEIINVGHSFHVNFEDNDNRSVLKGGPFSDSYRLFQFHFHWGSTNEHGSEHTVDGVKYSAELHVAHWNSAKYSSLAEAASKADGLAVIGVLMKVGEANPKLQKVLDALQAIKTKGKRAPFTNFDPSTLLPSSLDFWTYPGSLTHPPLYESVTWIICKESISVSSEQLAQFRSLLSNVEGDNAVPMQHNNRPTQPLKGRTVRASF
Description: Inhibitory activity against human carbonic anhydrase I

Carbonic anhydrase 2 = Carbonic anhydrase 2 (Homo sapiens, UniProt P00918)
Description: Inhibitory activity against human carbonic anhydrase II

SMILES	Ki (Carbonic anhydrase 9) [µM]	Ki (Carbonic anhydrase 4) [µM]	Ki (Carbonic anhydrase 1) [µM]	Ki (Carbonic anhydrase 2) [µM]
CCCc1cc(-c2ccccc2)cc(-c2ccccc2)[n+]1-c1ccc(S(N)(=O)=O)cc1	> 0.5			
NS(=O)(=O)c1ccc(C[n+]2c(-c3ccccc3)cc(-c3ccccc3)cc2-c2ccccc2)cc1	0.12	1.96	280	
Cc1cc(C)[n+](-c2ccc(S(N)(=O)=O)cc2)c(C)c1C			5	
Cc1cc(C)[n+](-c2ccc(S(N)(=O)=O)cc2)c(C)c1			10	
Cc1cc(C(C)C)[n+](CCc2ccc(S(N)(=O)=O)cc2)c(C(C)C)c1		0.07	3	0.02
CC(C)(C)c1cc(-c2ccccc2)cc(-c2ccccc2)[n+]1Cc1ccc(S(N)(=O)=O)cc1	> 0.5			
Cc1cc(C)[n+](CCc2ccc(S(N)(=O)=O)cc2)c(C)c1C	0.008	0.021	2	
CC(C)c1cc(-c2ccccc2)cc(C(C)C)[n+]1CCc1ccc(S(N)(=O)=O)cc1			6	0.021
Cc1cc(C)[n+](Cc2ccc(S(N)(=O)=O)cc2)c(C(C)C)c1			6	0.05
Cc1cc(-c2ccccc2)cc(-c2ccccc2)[n+]1-c1ccc(S(N)(=O)=O)cc1			40	
CC(C)c1cc(-c2ccccc2)cc(C(C)C)[n+]1-c1ccc(S(N)(=O)=O)cc1			5	
CCc1cc(-c2ccccc2)cc(CC)[n+]1Cc1ccc(S(N)(=O)=O)cc1			2	0.021
NS(=O)(=O)c1ccc(C[n+]2c(-c3ccccc3)cccc2-c2ccccc2)cc1		1.95	280	
CC(C)c1cc(-c2ccccc2)cc(-c2ccccc2)[n+]1-c1ccc(S(N)(=O)=O)cc1	> 0.5	2.1		
CCCCc1cc(-c2ccccc2)cc(-c2ccccc2)[n+]1-c1ccc(S(N)(=O)=O)cc1	> 0.5			
CC(C)(C)c1cc(-c2ccccc2)cc(-c2ccccc2)[n+]1CCc1ccc(S(N)(=O)=O)cc1	> 0.5			
CCCc1cc(-c2ccccc2)cc(-c2ccccc2)[n+]1CCc1ccc(S(N)(=O)=O)cc1			112	

SMILES	Ki (Carbonic anhydrase 9) [µM]	Ki (Carbonic anhydrase 4) [µM]	Ki (Carbonic anhydrase 1) [µM]	Ki (Carbonic anhydrase 2) [µM]
CCCCc1cc(-c2ccccc2)cc(-c2ccccc2)[n+]1Cc1ccc(S(N)(=O)=O)cc1	0.135	2.1	300	0.595
CCCc1cc(-c2ccccc2)cc(CCC)[n+]1CCc1ccc(S(N)(=O)=O)cc1			7	
Cc1cc(C)[n+](CCc2ccc(S(N)(=O)=O)cc2)c(C(C)C)c1			2	
CCc1cc(-c2ccccc2)cc(-c2ccccc2)[n+]1CCc1ccc(S(N)(=O)=O)cc1			40	
Cc1cc(C)[n+](Cc2ccc(S(N)(=O)=O)cc2)c(C)c1			7	0.05
Cc1cc(C)[n+](Cc2ccc(S(N)(=O)=O)cc2)c(C)c1C			3	
CCc1cc(-c2ccccc2)cc(-c2ccccc2)[n+]1Cc1ccc(S(N)(=O)=O)cc1	0.079	0.983	42	0.314
Cc1cc(-c2ccccc2)cc(C)[n+]1Cc1ccc(S(N)(=O)=O)cc1		0.07	4	
CCCc1cc(-c2ccccc2)cc(CCC)[n+]1-c1ccc(S(N)(=O)=O)cc1			10	
Cc1cc(-c2ccccc2)cc(C)[n+]1CCc1ccc(S(N)(=O)=O)cc1			1	
CCc1cc(-c2ccccc2)cc(CC)[n+]1-c1ccc(S(N)(=O)=O)cc1			6	0.06
Cc1cc(C(C)C)[n+](Cc2ccc(S(N)(=O)=O)cc2)c(C(C)C)c1		0.144		
NS(=O)(=O)c1ccc(-[n+]2c(-c3ccccc3)cc(-c3ccccc3)cc2-c2ccccc2)cc1	> 0.5		290	
CCCCc1cc(-c2ccccc2)cc(-c2ccccc2)[n+]1CCc1ccc(S(N)(=O)=O)cc1	0.12		290	
Cc1cc(-c2ccccc2)cc(C)[n+]1-c1ccc(S(N)(=O)=O)cc1			7	0.06
CCc1cc(-c2ccccc2)cc(CC)[n+]1CCc1ccc(S(N)(=O)=O)cc1	0.008	0.021	1	
CC(C)c1cc(-c2ccccc2)cc(-c2ccccc2)[n+]1Cc1ccc(S(N)(=O)=O)cc1			112	
